# Reference: patent publication US3957987A, “Compositions containing a carbonamidoquinoxaline-di-N-oxide and method of using same” (Bayer Aktiengesellschaft, priority 1971, dated 1976)
# Tested on: Clostridium tetani
# Assay: microbe, parasite or virus in culture
# Assay type: cell-based
# Settings: read-out: minimum inhibitory concentration
row,SMILES,MIC [µg/mL]
1,CNC(=O)c1c(C=NNC(=O)OC)[n+]([O-])c2ccccc2[n+]1[O-] [Example 13],100
2,CCNC(=O)c1c(C=NNC(=O)OC)[n+]([O-])c2ccccc2[n+]1[O-] [Example 18],100
3,CNC(=O)c1c(C=NO)[n+]([O-])c2ccccc2[n+]1[O-] [Example 19],100

# Tested on: Mycoplasma gran
# Assay: Minimum inhibitory concentration, Mycoplasma gran
# Assay type: cell-based
# Settings: not given
row,SMILES,MIC [µg/mL]
1,CNC(=O)c1c(C=NNC(=O)OC)[n+]([O-])c2ccccc2[n+]1[O-] [Example 13],100
2,CCNC(=O)c1c(C=NNC(=O)OC)[n+]([O-])c2ccccc2[n+]1[O-] [Example 18],100
3,CNC(=O)c1c(C=NO)[n+]([O-])c2ccccc2[n+]1[O-] [Example 19],100

# Tested on: Staphylococcus aureus 133
# Assay: Minimum inhibitory concentration in vitro, Staphylococcus aureus 133
# Assay type: cell-based
# Settings: not given
# Text: (§1) As representative of the spectrum of antimicrobial activity for these compounds, the following representative minimum inhibitory concentrations shown on Tables A, B and C can be noted:
# (§2) Minimum Inhibitory Concentrations In Vitro, in μg/ml of Medium
row,SMILES,MIC [µg/mL]
1,CNC(=O)c1c(C=NNC(=O)OC)[n+]([O-])c2ccccc2[n+]1[O-] [Example 13],100
2,CCNC(=O)c1c(C=NNC(=O)OC)[n+]([O-])c2ccccc2[n+]1[O-] [Example 18],100
3,CNC(=O)c1c(C=NO)[n+]([O-])c2ccccc2[n+]1[O-] [Example 19],100

# Tested on: Mycoplasma S6
# Assay: Minimum inhibitory concentration, Mycoplasma S6
# Assay type: cell-based
# Settings: not given
row,SMILES,MIC [µg/mL]
1,CNC(=O)c1c(C=NNC(=O)OC)[n+]([O-])c2ccccc2[n+]1[O-] [Example 13],100
2,CCNC(=O)c1c(C=NNC(=O)OC)[n+]([O-])c2ccccc2[n+]1[O-] [Example 18],100
3,CNC(=O)c1c(C=NO)[n+]([O-])c2ccccc2[n+]1[O-] [Example 19],100

# Tested on: Streptococcus pyogenes
# Assay: Minimum inhibitory concentration in vitro, Streptococcus pyogenes
# Assay type: cell-based
# Settings: not given
# Text: as §1, §2
row,SMILES,MIC [µg/mL]
1,CNC(=O)c1c(C=NNC(=O)OC)[n+]([O-])c2ccccc2[n+]1[O-] [Example 13],100
2,CCNC(=O)c1c(C=NNC(=O)OC)[n+]([O-])c2ccccc2[n+]1[O-] [Example 18],100
3,CNC(=O)c1c(C=NO)[n+]([O-])c2ccccc2[n+]1[O-] [Example 19],100

# Tested on: Clostridium botulinum
# Assay: microbe, parasite or virus in culture
# Assay type: cell-based
# Settings: read-out: minimum inhibitory concentration
row,SMILES,MIC [µg/mL]
1,CNC(=O)c1c(C=NNC(=O)OC)[n+]([O-])c2ccccc2[n+]1[O-] [Example 13],100
2,CCNC(=O)c1c(C=NNC(=O)OC)[n+]([O-])c2ccccc2[n+]1[O-] [Example 18],100
3,CNC(=O)c1c(C=NO)[n+]([O-])c2ccccc2[n+]1[O-] [Example 19],100

# Tested on: Pasteurella multocida ATCC
# Assay: Minimum inhibitory concentration, Pasteurella multocida ATCC
# Assay type: cell-based
# Settings: not given
row,SMILES,MIC [µg/mL]
1,CNC(=O)c1c(C=NNC(=O)OC)[n+]([O-])c2ccccc2[n+]1[O-] [Example 13],100
2,CCNC(=O)c1c(C=NNC(=O)OC)[n+]([O-])c2ccccc2[n+]1[O-] [Example 18],100
3,CNC(=O)c1c(C=NO)[n+]([O-])c2ccccc2[n+]1[O-] [Example 19],100

# Tested on: Proteus vulgaris
# Assay: Minimum inhibitory concentration in vitro, Proteus vulgaris specieis
# Assay type: cell-based
# Settings: not given
# Text: as §1, §2
row,SMILES,MIC [µg/mL]
1,CNC(=O)c1c(C=NNC(=O)OC)[n+]([O-])c2ccccc2[n+]1[O-] [Example 13],100
2,CCNC(=O)c1c(C=NNC(=O)OC)[n+]([O-])c2ccccc2[n+]1[O-] [Example 18],100
3,CNC(=O)c1c(C=NO)[n+]([O-])c2ccccc2[n+]1[O-] [Example 19],100

# Tested on: Klebsiella 8085
# Assay: Minimum inhibitory concentration in vitro, Klebsiella 8085
# Assay type: cell-based
# Settings: not given
# Text: as §1, §2
row,SMILES,MIC [µg/mL]
1,CNC(=O)c1c(C=NNC(=O)OC)[n+]([O-])c2ccccc2[n+]1[O-] [Example 13],10
2,CCNC(=O)c1c(C=NNC(=O)OC)[n+]([O-])c2ccccc2[n+]1[O-] [Example 18],10
3,CNC(=O)c1c(C=NO)[n+]([O-])c2ccccc2[n+]1[O-] [Example 19],100

# Tested on: Bordetella bronchiseptica
# Assay: Minimum inhibitory concentration, Bordetella bronchiseptica
# Assay type: cell-based
# Settings: not given
row,SMILES,MIC [µg/mL]
1,CNC(=O)c1c(C=NNC(=O)OC)[n+]([O-])c2ccccc2[n+]1[O-] [Example 13],100
2,CCNC(=O)c1c(C=NNC(=O)OC)[n+]([O-])c2ccccc2[n+]1[O-] [Example 18],100
3,CNC(=O)c1c(C=NO)[n+]([O-])c2ccccc2[n+]1[O-] [Example 19],100

# Tested on: Aeromonas liquefaciens
# Assay: Minimum inhibitory concentration, Aeromonas liquefaciens
# Assay type: cell-based
# Settings: Aeromonas hydrophila
row,SMILES,MIC [µg/mL]
1,CNC(=O)c1c(C=NNC(=O)OC)[n+]([O-])c2ccccc2[n+]1[O-] [Example 13],100
2,CCNC(=O)c1c(C=NNC(=O)OC)[n+]([O-])c2ccccc2[n+]1[O-] [Example 18],100
3,CNC(=O)c1c(C=NO)[n+]([O-])c2ccccc2[n+]1[O-] [Example 19],100

# Tested on: Escherichia coli A 261
# Assay: Minimum inhibitory concentration in vitro, Escherichia coli A 261
# Assay type: cell-based
# Settings: A261
# Text: as §1, §2
row,SMILES,MIC [µg/mL]
1,CNC(=O)c1c(C=NNC(=O)OC)[n+]([O-])c2ccccc2[n+]1[O-] [Example 13],100
2,CCNC(=O)c1c(C=NNC(=O)OC)[n+]([O-])c2ccccc2[n+]1[O-] [Example 18],100
3,CNC(=O)c1c(C=NO)[n+]([O-])c2ccccc2[n+]1[O-] [Example 19],100

# Tested on: Escherichia coli C 165
# Assay: Minimum inhibitory concentration in vitro, Escherichia coli C 165
# Assay type: cell-based
# Settings: C165
# Text: as §1, §2
row,SMILES,MIC [µg/mL]
1,CNC(=O)c1c(C=NNC(=O)OC)[n+]([O-])c2ccccc2[n+]1[O-] [Example 13],100
2,CCNC(=O)c1c(C=NNC(=O)OC)[n+]([O-])c2ccccc2[n+]1[O-] [Example 18],100
3,CNC(=O)c1c(C=NO)[n+]([O-])c2ccccc2[n+]1[O-] [Example 19],100

# Tested on: Mycobacterium species
# Assay: Minimum inhibitory concentration, Mycobacterium species
# Assay type: cell-based
# Settings: not given
# Text: As representative of the spectrum of antimicrobial activity for these compounds, the following representative minimum inhibitory concentrations shown on Tables A, B and C can be noted: […]
row,SMILES,MIC [µg/mL]
1,CNC(=O)c1c(C=NNC(=O)OC)[n+]([O-])c2ccccc2[n+]1[O-] [Example 13],100
2,CCNC(=O)c1c(C=NNC(=O)OC)[n+]([O-])c2ccccc2[n+]1[O-] [Example 18],100
3,CNC(=O)c1c(C=NO)[n+]([O-])c2ccccc2[n+]1[O-] [Example 19],40 to 100

# Tested on: Klebsiella 63
# Assay: Minimum inhibitory concentration in vitro, Klebsiella 63
# Assay type: cell-based
# Settings: not given
# Text: as §1, §2
row,SMILES,MIC [µg/mL]
1,CNC(=O)c1c(C=NNC(=O)OC)[n+]([O-])c2ccccc2[n+]1[O-] [Example 13],100
2,CCNC(=O)c1c(C=NNC(=O)OC)[n+]([O-])c2ccccc2[n+]1[O-] [Example 18],100
3,CNC(=O)c1c(C=NO)[n+]([O-])c2ccccc2[n+]1[O-] [Example 19],100

# Tested on: Alcaligenes faecalis ATCC
# Assay: Minimum inhibitory concentration, Alcaligenes faecalis ATCC
# Assay type: cell-based
# Settings: not given
row,SMILES,MIC [µg/mL]
1,CNC(=O)c1c(C=NNC(=O)OC)[n+]([O-])c2ccccc2[n+]1[O-] [Example 13],100
2,CCNC(=O)c1c(C=NNC(=O)OC)[n+]([O-])c2ccccc2[n+]1[O-] [Example 18],100
3,CNC(=O)c1c(C=NO)[n+]([O-])c2ccccc2[n+]1[O-] [Example 19],100
